Measurements reported in patent US20230271954A1 (Gossamer Bio Services, Inc., priority 2020, published 2023).

How the values were obtained:
DGKζ = target: T1, DGKζ (Homo sapiens, UniProt Q13574); assay: DGKζ biochemical assay (ADP-Glo); settings: read-out: DGK ζ IC50
T1 construct: purchased Carna 12-110

DGKα = DGKα (Homo sapiens, UniProt P23743); assay: DGKα biochemical assay (ADP-Glo); settings: read-out: DGK α IC50
Summary of the method: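 ADP-Glo kinase assay using OAG/PS (1:2) lipid substrate, sonicated, in HEPES pH 7.0 buffer with MgCl2, CaCl2, DTT, BSA, Triton X-100. Enzyme preincubated with compound 30 min at RT; substrate with ATP (DGKα: 400 μM) added, 45 min RT. Luminescence read; % inhibition vs DMSO and no-enzyme controls.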

T1 sequence (Q13574 1-929 isoform Q13574-4): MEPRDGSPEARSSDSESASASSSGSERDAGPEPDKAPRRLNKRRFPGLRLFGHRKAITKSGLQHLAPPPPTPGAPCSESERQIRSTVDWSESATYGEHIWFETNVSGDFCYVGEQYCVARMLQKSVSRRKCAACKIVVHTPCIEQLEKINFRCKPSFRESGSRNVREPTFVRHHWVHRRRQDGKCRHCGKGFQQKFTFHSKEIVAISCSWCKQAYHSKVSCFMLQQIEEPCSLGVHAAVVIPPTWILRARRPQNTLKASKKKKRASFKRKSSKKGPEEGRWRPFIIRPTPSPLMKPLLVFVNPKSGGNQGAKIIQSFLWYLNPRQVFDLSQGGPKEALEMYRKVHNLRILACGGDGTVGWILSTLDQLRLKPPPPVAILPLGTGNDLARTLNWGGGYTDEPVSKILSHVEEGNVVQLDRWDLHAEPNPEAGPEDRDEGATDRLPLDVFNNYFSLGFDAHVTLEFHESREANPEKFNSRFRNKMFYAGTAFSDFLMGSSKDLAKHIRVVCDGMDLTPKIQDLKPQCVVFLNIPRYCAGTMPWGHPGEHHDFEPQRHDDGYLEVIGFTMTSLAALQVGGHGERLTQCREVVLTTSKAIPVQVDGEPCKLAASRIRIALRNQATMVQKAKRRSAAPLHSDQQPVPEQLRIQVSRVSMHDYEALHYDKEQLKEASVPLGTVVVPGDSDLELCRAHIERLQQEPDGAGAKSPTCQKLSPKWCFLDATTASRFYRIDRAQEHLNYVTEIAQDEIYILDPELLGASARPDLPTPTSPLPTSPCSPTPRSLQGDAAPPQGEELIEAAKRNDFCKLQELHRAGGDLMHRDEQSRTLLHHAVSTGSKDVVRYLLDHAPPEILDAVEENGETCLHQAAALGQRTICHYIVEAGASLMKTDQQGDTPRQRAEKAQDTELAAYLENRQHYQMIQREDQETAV
Sequence of DGKα (P23743 whole entry): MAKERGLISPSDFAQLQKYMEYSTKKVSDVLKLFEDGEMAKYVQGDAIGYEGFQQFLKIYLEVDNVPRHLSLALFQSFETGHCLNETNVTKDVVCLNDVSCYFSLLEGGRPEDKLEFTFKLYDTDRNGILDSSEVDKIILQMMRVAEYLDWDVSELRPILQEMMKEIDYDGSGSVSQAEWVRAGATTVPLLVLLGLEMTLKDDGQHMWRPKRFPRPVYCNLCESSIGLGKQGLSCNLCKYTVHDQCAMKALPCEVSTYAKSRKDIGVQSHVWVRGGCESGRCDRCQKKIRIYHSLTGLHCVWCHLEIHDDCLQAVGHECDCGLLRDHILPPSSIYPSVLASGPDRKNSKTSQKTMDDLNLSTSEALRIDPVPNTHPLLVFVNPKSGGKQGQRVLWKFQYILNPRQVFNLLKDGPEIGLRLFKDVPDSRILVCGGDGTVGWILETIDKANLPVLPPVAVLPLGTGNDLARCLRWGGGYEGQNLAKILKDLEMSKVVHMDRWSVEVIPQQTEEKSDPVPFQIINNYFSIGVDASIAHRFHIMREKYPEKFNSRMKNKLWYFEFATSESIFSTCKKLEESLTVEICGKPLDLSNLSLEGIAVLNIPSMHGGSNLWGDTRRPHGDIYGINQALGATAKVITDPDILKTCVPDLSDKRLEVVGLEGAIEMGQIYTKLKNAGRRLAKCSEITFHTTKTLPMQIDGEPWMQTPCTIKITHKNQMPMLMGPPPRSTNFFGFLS

SMILES	IC50 (DGKζ) [µM]	IC50 (DGKα) [µM]
Cn1c(=O)c(C#N)c(N(C)[C@H]2CC[C@H](N(CC3CCC3)c3cccc4c3OCO4)CC2)c2nc(Cl)ccc21 [Example 132, trans-4-((-4-(benzo[d][1,3]dioxol-4-yl(cyclobutylmethyl)amino)cyclohexyl)(methyl)amino)-6-chloro-1-methyl-2-oxo-1,2-dihydro-1,5-naphthyridine-3-carbonitrile]	0.01 to 0.1	< 0.01
Cn1c(=O)cc(N(C)[C@H]2CC[C@@H](N(CC3CCC3)c3ccc4c(c3)OC(F)(F)O4)CC2)c2nc(C#N)ccc21 [Example 133, cis-8-((-4-((cyclobutylmethyl)(2,2-difluorobenzo[d] [1,3]dioxol-5-yl)amino)cyclohexyl)(methyl)amino)-5-methyl-6-oxo-5,6-dihydro-1,5-naphthyridine-2-carbonitrile]	0.1 to 1	0.01 to 0.1
Cn1c(=O)cc(N(C)[C@H]2CC[C@@H](N(CC3CCC3)c3cc(F)cc(F)c3)CC2)c2nc(C#N)ccc21 [Example 134, cis-8-((-4-((cyclobutylmethyl)(3,5-difluorophenyl)amino)cyclohexyl)(methyl)amino)-5-methyl-6-oxo-5,6-dihydro-1,5-naphthyridine-2-carbonitrile]	0.1 to 1	0.01 to 0.1
Cn1c(=O)c(C#N)c(N(C)[C@H]2CC[C@H](N(CC3CC3)c3ccc(F)c(OC4CC4)c3)CC2)c2nc(C#N)ccc21 [Example 135, trans-8-((-4-((3-cyclopropoxy-4-fluorophenyl) (cyclopropylmethyl)amino)cyclohexyl)(methyl)amino)-5-methyl-6-oxo-5,6-dihydro-1,5-naphthyridine-2,7-dicarbonitrile]	0.01 to 0.1	0.01 to 0.1
Cc1cc(F)ccc1N(CC1CCCCO1)[C@H]1CC[C@H](N(C)c2c(C#N)c(=O)n(C)c3ccc(C#N)nc23)CC1 (stereo partly drawn) [Example 136, trans-8-((-4-((4-fluoro-2-methylphenyl)((tetrahydro-2H-pyran-2-yl)methyl)amino)cyclohexyl)(methyl)amino)-5-methyl-6-oxo-5,6-dihydro-1,5-naphthyridine-2,7-dicarbonitrile]	0.01 to 0.1	0.1 to 1
Cc1cc(F)c(F)cc1N(CC1CCC1)[C@H]1CC[C@H](N(C)c2c(C#N)c(=O)n(C)c3ccc(Cl)nc23)CC1 [Example 137, trans-6-chloro-4-((4-((cyclobutylmethyl)(4,5-difluoro-2-methylphenyl)amino)cyclohexyl)(methyl)amino)-1-methyl-2-oxo-1,2-dihydro-1,5-naphthyridine-3-carbonitrile]	≥ 1	≥ 1
Cc1cc(F)c(F)cc1N(CC1CCC1)[C@H]1CC[C@H](N(C)c2c(C#N)c(=O)n(C)c3ccc(C#N)nc23)CC1 [Example 138, trans-8-((4-((cyclobutylmethyl)(4,5-difluoro-2-methylphenyl)amino)cyclohexyl)(methyl)amino)-5-methyl-6-oxo-5,6-dihydro-1,5-naphthyridine-2,7-dicarbonitrile]	≥ 1	≥ 1

Further lines, results first:

IC50 (DGKζ) [µM]	IC50 (DGKα) [µM]	SMILES
≥ 1	≥ 1	Cc1nc(F)ccc1N(CC1CCC1)[C@H]1CC[C@H](N(C)c2c(C#N)c(=O)n(C)c3ccc(Cl)nc23)CC1 [Example 139, trans-6-chloro-4-((-4-((cyclobutylmethyl)(6-fluoro-2-methylpyridin-3-yl)amino)cyclohexyl)(methyl)amino)-1-methyl-2-oxo-1,2-dihydro-1,5-naphthyridine-3-carbonitrile]
0.01 to 0.1	0.1 to 1	Cc1cc(F)ncc1N(CC1CCC1)[C@H]1CC[C@H](N(C)c2c(C#N)c(=O)n(C)c3ccc(C#N)nc23)CC1 [Example 140, trans-8-((-4-((cyclobutylmethyl)(6-fluoro-4-methylpyridin-3-yl)amino)cyclohexyl)(methyl)amino)-5-methyl-6-oxo-5,6-dihydro-1,5-naphthyridine-2,7-dicarbonitrile]
0.01 to 0.1	< 0.01	Cn1c(=O)c(C#N)c(N(C)[C@H]2CC[C@@H](N(CC3COCCO3)c3ccc(F)cc3)CC2)c2nc(C#N)ccc21 (stereo partly drawn) [Example 141, cis-8-((-4-(((1,4-dioxan-2-yl)methyl)(4-fluorophenyl)amino)cyclohexyl)(methyl)amino)-5-methyl-6-oxo-5,6-dihydro-1,5-naphthyridine-2,7-dicarbonitrile]
0.01 to 0.1	0.01 to 0.1	Cn1c(=O)c(C#N)c(N(C)[C@H]2CC[C@@H](N(C[C@@H]3CCCOC3)c3ccc4c(c3)OCO4)CC2)c2nc(C#N)ccc21 [Example 142, cis-8-((-4-(benzo[d][1,3]dioxol-5-yl(((S)-tetrahydro-2H-pyran-3-yl)methyl)amino)cyclohexyl)(methyl)amino)-5-methyl-6-oxo-5,6-dihydro-1,5-naphthyridine-2,7-dicarbonitrile]
0.01 to 0.1	< 0.01	Cn1c(=O)c(C#N)c(N(C)[C@H]2CC[C@@H](N(C[C@H]3CCCOC3)c3ccc4c(c3)OCO4)CC2)c2nc(C#N)ccc21 [Example 143, cis-8-((-4-(benzo[d][1,3]dioxol-5-yl(((R)-tetrahydro-2H-pyran-3-yl)methyl)amino)cyclohexyl)(methyl)amino)-5-methyl-6-oxo-5,6-dihydro-1,5-naphthyridine-2,7-dicarbonitrile]
0.1 to 1	0.1 to 1	Cc1cc(F)ccc1N(CC1CC1)[C@H]1CC[C@@H](N(C)c2cc(=O)n(C)c3ccc(C#N)nc23)CC1 [Example 144, cis-8-((4-((cyclopropylmethyl)(4-fluoro-2-methylphenyl)amino)cyclohexyl)(methyl)amino)-5-methyl-6-oxo-5,6-dihydro-1,5-naphthyridine-2-carbonitrile]
≥ 1	≥ 1	Cc1cc2c(cc1N(CC1CCC1)[C@H]1CC[C@H](N(C)c3c(C#N)c(=O)n(C)c4ccc(Cl)nc34)CC1)OCO2 [Example 145, trans-6-chloro-4-((4-((cyclobutylmethyl)(6-methylbenzo[d][1,3]dioxol-5-yl)amino)cyclohexyl) (methyl)amino)-1-methyl-2-oxo-1,2-dihydro-1,5-naphthyridine-3-carbonitrile]
0.1 to 1	0.1 to 1	Cc1cc2c(cc1N(CC1CCC1)[C@H]1CC[C@H](N(C)c3c(C#N)c(=O)n(C)c4ccc(C#N)nc34)CC1)OCO2 [Example 146, trans-8-((4-((cyclobutylmethyl)(6-methylbenzo[d] [1,3]dioxol-5-yl)amino)cyclohexyl)(methyl)amino)-5-methyl-6-oxo-5,6-dihydro-1,5-naphthyridine-2,7-dicarbonitrile]
0.1 to 1	0.01 to 0.1	Cc1ccc(N(CC2CCC2)[C@H]2CC[C@@H](N(C)c3cc(=O)n(C)c4ccc(C#N)nc34)CC2)cc1OC(F)F [Example 147, cis-8-((-4-((cyclobutylmethyl)(3-(difluoromethoxy)-4-methylphenyl)amino)cyclohexyl)(methyl)amino)-5-methyl-6-oxo-5,6-dihydro-1,5-naphthyridine-2-carbonitrile]
0.01 to 0.1	0.01 to 0.1	Cc1ccc(N(CC2CCC2)[C@H]2CC[C@@H](N(C)c3c(C#N)c(=O)n(C)c4ccc(C#N)nc34)CC2)cc1OC(F)F [Example 148, cis-8-((-4-((cyclobutylmethyl)(3-(difluoromethoxy)-4-methylphenyl)amino)cyclohexyl)(methyl)amino)-5-methyl-6-oxo-5,6-dihydro-1,5-naphthyridine-2,7-dicarbonitrile]
